Results reported in BigSolDB 2.1.

O=C(O)c1cccc(C(=O)O)c1
solubility (mole fraction)
Settings	283.15 K	288.15 K	293.15 K	298.15 K	303.15 K	308.15 K	313.15 K	318.15 K	323.15 K
in ethanol	0.00328	0.00369	0.00406	0.00451	0.005	0.00559	0.00616	0.00682	0.00752
in methanol	0.00269	0.00304	0.00342	0.00376	0.00422	0.00473	0.00527	0.0059	0.00654
in n-propanol	0.00287	0.0032	0.00362	0.00415	0.00472	0.00533	0.00603	0.00689	0.00774
